From patent US9828368B2 (MERCK SHARP & DOHME CORP., priority 2013, dated 2017)

Assays:
[1] = molecular target: human orexin-2 receptor (Homo sapiens (Human), UniProt O43614); assay: FLIPR Ca2+ flux assay, hOX2R; type: cell-based; conditions: CHO cells expressing human orexin-2 receptor; agonist 70 pM Ala-6,12 orexin-A
Protocol: In a typical experiment the OX1 and OX2 receptor antagonistic activity of the compounds of the present invention was determined in accordance with the following experimental method. For intracellular calcium measurements, Chinese hamster ovary (CHO) cells expressing the rat orexin-1 receptor or the human orexin-2 receptor, are grown in Iscove's modified DMEM containing 2 mM L-glutamine, […], 1% hypoxanthine-thymidine supplement, 100 U/ml penicillin, 100 μg/ml streptomycin and 10% heat-inactivated fetal calf serum (FCS). The cells are seeded at 20,000 cells/well into Becton-Dickinson black 384-well clear bottom sterile plates coated with poly-D-lysine. All reagents were from GIBCO-Invitrogen Corp. The seeded plates are incubated overnight at 37° C. and 5% CO2. Ala-6,12 human orexin-A as the agonist is prepared as a 1 mM stock solution in 1% bovine serum albumin (BSA) and diluted in assay buffer (HBSS containing 20 mM HEPES, 0.1% BSA and 2.5 mM probenecid, pH7.4) for use in the assay at a final concentration of 70 pM. Test compounds are prepared as 10 mM stock solution in DMSO, then diluted in 384-well plates, first in DMSO, then assay buffer. On the day of the assay, cells are washed 3 times with 100 μl assay buffer and then incubated for 60 min (37° C., 5% CO2) in 60 μl assay buffer containing 1 μM Fluo-4AM ester, 0.02% pluronic acid, and 1% BSA. The dye loading solution is then aspirated and cells are washed 3 times with 100 μl assay buffer. 30 μl of that same buffer is left in each well. Within the Fluorescent Imaging Plate Reader (FLIPR, Molecular Devices), test compounds are added to the plate in a volume of 25 μl, incubated for 5 min and finally 25 μl of agonist is added. Fluorescence is measured for each well at 1 second intervals for 5 minutes and the height of each fluorescence peak is compared to the height of the fluorescence peak induced by 70 pM Ala-6,12 orexin-A with buffer in place of antagonist. […] The intrinsic orexin receptor antagonist activity of a compound which may be used in the present invention may be determined by these assays.

[2] = molecular target: hOX1R (Homo sapiens, UniProt O43613); assay: FLIPR Ca2+ flux assay, hOX1R; type: cell-based; conditions: CHO cells; agonist 70 pM Ala-6,12 orexin-A; rat orexin-1 receptor; read-out: hOX1R FLIPR IC50

human orexin-2 receptor, sequence (O43614 whole entry): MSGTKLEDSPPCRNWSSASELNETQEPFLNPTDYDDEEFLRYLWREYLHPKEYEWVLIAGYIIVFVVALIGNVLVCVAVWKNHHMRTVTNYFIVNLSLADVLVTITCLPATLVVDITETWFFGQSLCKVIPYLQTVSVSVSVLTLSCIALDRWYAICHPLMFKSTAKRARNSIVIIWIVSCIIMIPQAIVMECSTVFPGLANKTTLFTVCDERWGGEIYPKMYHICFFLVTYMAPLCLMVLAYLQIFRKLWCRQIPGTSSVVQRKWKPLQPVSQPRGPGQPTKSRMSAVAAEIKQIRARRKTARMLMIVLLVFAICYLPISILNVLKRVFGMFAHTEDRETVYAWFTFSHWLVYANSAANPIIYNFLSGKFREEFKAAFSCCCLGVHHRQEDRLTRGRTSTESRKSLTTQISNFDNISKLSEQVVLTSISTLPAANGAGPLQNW

Compound: C[C@@H]1CC[C@@H](c2nc(-c3ccccc3CO)co2)CN1C(=O)c1ccccc1-n1nccn1 [Example 5, (2-(2H-1,2,3-Triazol-2-yl)phenyl)((2R,5R)-5-(4-(2-(hydroxymethyl)phenyl)oxazol-2-yl)-2-methylpiperidin-l-yl)methanone]
- IC50 [1]: 30 nM
- IC50 [2]: 46 nM

Compound: C[C@@H]1CC[C@@H](c2nc(C(C)(C)C)co2)CN1C(=O)c1ccccc1-n1nccn1 [Example 16, (2-(2H-1,2,3-Triazol-2-yl)phenyl)((2R,5R)-5-(4-(tert-butyl)oxazol-2-yl)-2-methylpiperidin-1-yl)methanone]
- IC50 [1]: 60 nM
- IC50 [2]: 290 nM

Compound: C[C@@H]1CC[C@@H](c2nc(CF)c(-c3ccccc3)o2)CN1C(=O)c1ccccc1-n1nccn1 [Example 58, (2-(2H-1,2,3-Triazol-2-yl)phenyl)((2R,5R)-5-(4-(fluoromethyl)-5-phenyloxazol-2-yl)-2-methylpiperidin-1-yl)methanone]
- IC50 [1]: 159 nM
- IC50 [2]: 220 nM

Compound: Cc1oc([C@@H]2CC[C@@H](C)N(C(=O)c3cccnc3OCC(F)(F)F)C2)nc1C(C)(C)O [Example 39, ((2R,5R)-5-(4-(2-Hydroxypropan-2-yl)-5-methyloxazol-2-y1)-2-methylpiperidin-1-yl)(2-(2,2,2-trifluoroethoxy)pyridin-3-yl)methanone]
- IC50 [1]: 17.5 nM
- IC50 [2]: 2130 nM

Compound: COC(=O)c1ccccc1C(=O)N1C[C@H](c2nc(C(C)(C)O)c(C)o2)CC[C@H]1C [Example 33, Methyl 2-((2R,5R)-5-(4-(2-hydroxypropan-2-yl)-5-methyloxazol-2-yl)-2-methylpiperidine-1-carbonyl)benzoate]
- IC50 [1]: 23 nM
- IC50 [2]: 9980 nM

Compound: Cc1nc([C@@H]2CC[C@@H](C)N(C(=O)c3ccccc3-n3nccn3)C2)oc1C(C)(C)O [Example 55, (2-(2H-1,2,3-Triazol-2-yl)phenyl)((2R,5R)-5-(5-(2-hydroxypropan-2-yl)-4-methyloxazol-2-yl)-2-methylpiperidin-1-yl)methanone]
- IC50 [1]: 63 nM
- IC50 [2]: 89 nM

Compound: CCOc1ncccc1C(=O)N1C[C@H](c2nc(C(C)(C)O)c(C)o2)CC[C@H]1C [Example 22, (2-Ethoxypyridin-3-yl)((2R,5R)-5-(4-(2-hydroxypropan-2-yl)-5-methyloxazol-2-yl)-2-methylpiperidin-1-yl)methanone]
- IC50 [1]: 297 nM
- IC50 [2]: > 10000 nM

Compound: CC(O)c1nc([C@@H]2CC[C@@H](C)N(C(=O)c3ccccc3-n3nccn3)C2)oc1-c1ccccc1 (single isomer, unassigned) [Example 64]
- IC50 [1]: 76 nM
- IC50 [2]: 136 nM

Compound: Cc1oc([C@@H]2CC[C@@H](C)N(C(=O)c3nc(Cl)sc3C(C)C)C2)nc1C(C)(C)O [Example 32, (2-Chloro-5-isopropylthiazol-4-yl)((2R,5R)-5-(4-(2-hydroxypropan-2-yl)-5-methyloxazol-2-yl)-2-methylpiperidin-1-yl)methanone]
- IC50 [1]: 160 nM
- IC50 [2]: > 10000 nM

Compound: Cc1oc([C@@H]2CC[C@@H](C)N(C(=O)c3ccccc3-n3nccn3)C2)nc1C(C)(C)O [Example 13, (2-(2H-1,2,3-Triazol-2-yl)phenyl)((2R,5R)-5-(4-(2-hydroxypropan-2-yl)-5-methyloxazol-2-yl)-2-methylpiperidin-1-yl)methanone]
- IC50 [1]: 12.8 nM
- IC50 [2]: 815 nM

Compound: CC[C@](C)(O)c1nc([C@@H]2CC[C@@H](C)N(C(=O)c3cscc3-n3nccn3)C2)oc1C [Example 46, (4-(2H-1,2,3-triazol-2-yl)thiophen-3-yl)((2R,5R)-5-(4-((S)-2-hydroxybutan-2-yl)-5-methyloxazol-2-yl)-2-methylpiperidin-1-yl)methanone]
- IC50 [1]: 37 nM
- IC50 [2]: 4700 nM

Compound: COC(C)(C)Cc1nc([C@@H]2CC[C@@H](C)N(C(=O)c3ccccc3-n3nccn3)C2)oc1-c1ccccc1 [Example 69, (2-(2H-1,2,3-Triazol-2-yl)phenyl)((2R,5R)-5-(4-(2-methoxy-2-methylpropyl)-5-phenyl-oxazol-2-yl)-2-methylpiperidin-1-yl)methanone]
- IC50 [1]: 287 nM
- IC50 [2]: 385 nM

Compound: Cc1oc([C@@H]2CC[C@@H](C)N(C(=O)c3cccnc3OC(C)C)C2)nc1C(C)(C)O [Example 40, ((2R,5R)-5-(4-(2-Hydroxypropan-2-yl)-5-methyloxazol-2-yl)-2-methylpiperidin-1-yl)(2-isopropoxypyridin-3-yl)methanone]
- IC50 [1]: 29.5 nM
- IC50 [2]: > 10000 nM

Compound: Cc1cc(C(=O)N2C[C@H](c3nc(C(C)(C)O)c(C)o3)CC[C@H]2C)c(-n2nccn2)s1 [Example 43, ((2R,5R)-5-(4-(2-Hydroxypropan-2-yl)-5-methyloxazol-2-yl)-2-methylpiperidin-1-yl)(5-methyl-2-(2H-1,2,3-triazol-2-yl)thiophen-3-yl)methanone]
- IC50 [1]: 30 nM
- IC50 [2]: 1190 nM

Compound: C[C@@H]1CC[C@@H](c2nc(C#N)c(Br)o2)CN1C(=O)c1ccccc1-n1nccn1 [Example 11, 2-((3R,6R)-1-(2-(2H-1,2,3-Triazol-2-yl)benzoyl)-6-methylpiperidin-3-yl)-5-bromooxazole-4-carbonitrile]
- IC50 [1]: 350 nM
- IC50 [2]: > 10000 nM

Compound: COC(=O)Cc1nc([C@@H]2CC[C@@H](C)N(C(=O)c3ccccc3-n3nccn3)C2)oc1-c1ccccc1 [Example 67]
- IC50 [2]: 93 nM

Compound: Cc1oc([C@@H]2CC[C@@H](C)N(C(=O)c3ccccc3OC(C)C)C2)nc1C(C)(C)O [Example 29, ((2R,5R)-5-(4-(2-Hydroxypropan-2-yl)-5-methyloxazol-2-yl)-2-methylpiperidin-1-yl)(2-isopropoxyphenyl)methanone]
- IC50 [1]: 20.4 nM
- IC50 [2]: 2000 nM

Compound: CC[C@@](C)(O)c1nc([C@@H]2CC[C@@H](C)N(C(=O)c3ccccc3-n3nccn3)C2)oc1C [Example 44, (2-(2H-1,2,3-Triazol-2-yl)phenyl)((2R,5R)-5-(4-((R)-2-hydroxybutan-2-yl)-5-methyloxazol-2-yl)-2-methylpiperidin-1-yl)methanone]
- IC50 [1]: 31 nM
- IC50 [2]: 790 nM

Compound: Cc1oc([C@@H]2CC[C@@H](C)N(C(=O)c3cccnc3OCC(F)F)C2)nc1C(C)(C)O [Example 38, (2-(2,2-Difluoroethoxy)pyridin-3-yl)((2R,5R)-5-(4-(2-hydroxypropan-2-yl)-5-methyloxazol-2-yl)-2-methylpiperidin-1-yl)methanone]
- IC50 [1]: 14.1 nM
- IC50 [2]: ~6400 nM

Compound: Cc1oc([C@@H]2CC[C@@H](C)N(C(=O)c3ccccc3C3(C#N)CCOCC3)C2)nc1C(C)(C)O [Example 21]
- IC50 [1]: 500 nM
- IC50 [2]: > 10000 nM

Compound: C[C@@H]1CC[C@@H](c2ncc(C3CCC3)o2)CN1C(=O)c1ccccc1-n1nccn1 [Example 75, (2-(2H-1,2,3-Triazol-2-yl)phenyl)((2R, 5R)-5-(5-cyclobutyloxazol-2-yl)-2-methylpiperidin-1-yl)methanone]
- IC50 [1]: 16 nM
- IC50 [2]: 59 nM

Compound: Cc1oc([C@@H]2CC[C@@H](C)N(C(=O)c3ccsc3-c3ncccn3)C2)nc1C(C)(C)O [Example 26, ((2R, 5R)-5-(4-(2-Hydroxypropan-2-yl)-5-methyloxazol-2-yl)-2-methylpiperidin-1-yl)(2-(pyrimidin-2-yl)thiophen-3-yl)methanone]
- IC50 [1]: 42 nM
- IC50 [2]: 1360 nM

Compound: CCC(C)(O)c1nc([C@@H]2CC[C@@H](C)N(C(=O)c3ccsc3-n3nccn3)C2)oc1C (stereo in doubt) [Example 48, (2-(2H-1,2,3-Triazol-2-yl)thiophen-3-yl)((2R,5R)-5-(4-((S)-2-hydroxybutan-2-yl)-5-methyloxazol-2-yl)-2-methylpiperidin-1-yl)methanone]
- IC50 [2]: 1810 nM

Compound: CC[C@](C)(O)c1nc([C@@H]2CC[C@@H](C)N(C(=O)c3ccsc3-n3nccn3)C2)oc1C [Example 49, (2-(2H-1,2,3-triazol-2-yl)thiophen-3-yl)((2R,5R)-5-(4-((S)-2-hydroxybutan-2-yl)-5-methyloxazol-2-yl)-2-methylpiperidin-1-yl)methanone]
- IC50 [2]: 1740 nM

Compound: COc1ccccc1C(=O)N1C[C@H](c2nc(C(C)(C)O)c(C)o2)CC[C@H]1C [Example 31, ((2R,5R)-5-(4-(2-Hydroxypropan-2-yl)-5-methyloxazol-2-yl)-2-methypiperidin-1-yl)(2-methoxyphenyl)methanone]
- IC50 [1]: 80 nM

Compound: Cc1oc([C@@H]2CC[C@@H](C)N(C(=O)c3cscc3-c3ncccn3)C2)nc1C(C)(C)O [Example 36]
- IC50 [2]: > 10000 nM

Compound: C[C@@H]1CC[C@@H](c2nc(CN(C)C)c(-c3ccccc3)o2)CN1C(=O)c1ccccc1-n1nccn1 [Example 66, (2-(2H-1,2,3-Triazol-2-yl)phenyl)((2R,5R)-5-(4-((dimethylamino)methyl)-5-phenyloxazol-2-yl)-2-methylpiperidin-1-yl)methanone]
- IC50 [1]: 983 nM
